Key:
[1] = system: differentiated L6-myotubes; assay: cAMP production relative to isoprenaline (Biological example 2 of WO 2019/053427); type: cell-based; conditions: 0.25 h, compound at 10 μM, activity relative to isoproterenol at 10 μM
How it was run: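 Differentiated L6 myotubes stimulated 15 min with test compound or isoprenaline, each at final 1×10^−5 M, in HBSS with 1% BSA, 5 mM HEPES, 1 mM IBMX, pH 7.4. cAMP production by the compound expressed relative to that induced by the same concentration of isoprenaline.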

[2] = system: differentiated L6-myotubes; assay: Glucose uptake screen (Biological example 1 of WO 2019/053427); type: cell-based; conditions: compound at 10 μM, activity relative to isoproterenol at 10 μM, read-out: Biological example 1 of WO 2019/053427 (GU)
How it was run: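 Rat L6 myoblasts were differentiated into myotubes over 7 days in 2% FBS, then serum-starved overnight. Cells were stimulated with 1×10^−5 M compound plus β2 antagonist ICI-118551 for 1 h 40 min and re-dosed for 20 min in glucose-free medium. Uptake of 50 nM ^3H-2-deoxyglucose over 10 min was counted after NaOH lysis.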

In the case of `CCC[C@@H](C)NC[C@H](O)c1cccc(O)c1` [Compound 28, (R)-2-[(R)-1-methylbutylamino]-1-(m-hydroxyphenyl)-1-ethanol], the Emax at 10 µM [1] is reported as 50 to 75% and the Emax at 10 µM [2] is reported as > 75%.
With `CCS(=O)(=O)N[C@H]1CC[C@@H](CC(C)(C)NC[C@H](O)c2cccc(F)c2)CC1` [Compound 524, (R)-2-{1,1-dimethyl-2-[(1s,4S)-4-(ethylsulfonylamino)cyclohexyl]ethylamino}-1-(m-fluorophenyl)-1-ethanol] the Emax at 10 µM [1] was < 25% and the Emax at 10 µM [2] was 50 to 75%.
With `O[C@H](c1cncc(F)c1)C12CCC(COCc3ccc(OC(F)(F)F)cc3)(CC1)N2` [Compound 490, (R)-(5-fluoro-3-pyridyl)(4-{[(p-trifluoromethoxyphenyl)methoxy]methyl}-7-azabicyclo[2.2.1]hept-1-yl)methanol] the Emax at 10 µM [1] was < 25% and the Emax at 10 µM [2] was 50 to 75%.
`COc1ccc(C[C@H]2CC[C@H]([C@H](O)c3cncc(F)c3)N2)cc1` [Compound 379, (R)-{(2R,5R)-5-[(p-methoxyphenyl)methyl]-2-pyrrolidinyl}(5-fluoro-3-pyridyl)methanol] was tested, and the Emax at 10 µM [1] was < 25% and the Emax at 10 µM [2] was > 75%.
In the case of `CCS(=O)(=O)N[C@H]1CC[C@H](CC(C)(C)NC[C@H](O)c2cncc(F)c2)CC1` [Compound 525, (R)-2-{1,1-dimethyl-2-[(1r,4R)-4-(ethylsulfonylamino)cyclohexyl]ethylamino}-1-(5-fluoro-3-pyridyl)-1-ethanol], the Emax at 10 µM [1] is reported as < 25% and the Emax at 10 µM [2] is reported as 50 to 75%.
In the case of `O[C@@H](c1cccc(F)c1)C12CCC(CCc3ccc(Cl)cc3)(CC1)N2` [Compound 527, (S)-{4-[2-(p-chlorophenyl)ethyl]-7-azabicyclo[2.2.1]hept-1-yl}(m-fluorophenyl)methanol], the Emax at 10 µM [1] is reported as < 25% and the Emax at 10 µM [2] is reported as < 25%.
For `CCCCNCC(O)c1cc(Cl)c(O)c(Cl)c1` (centres unmarked) [Compound 23, 2-(butylamino)-1-(3,5-dichloro-4-hydroxyphenyl)-1-ethanol], the Emax at 10 µM [1] was < 25% and the Emax at 10 µM [2] was < 25%.
In the case of `CC(C)(NC[C@H](O)c1cncc(F)c1)[C@H]1CC[C@H](O)CC1` [Compound 285, (R)-1-(5-fluoro-3-pyridyl)-2-{1-methyl-1-[(1r,4R)-4-hydroxycyclohexyl]ethyl-amino}-1-ethanol], the Emax at 10 µM [1] is reported as < 25% and the Emax at 10 µM [2] is reported as 50 to 75%.
`CC1(C)CC[C@@H]([C@@H](O)c2cccc(O)c2)N1` [Compound 143, m-{(S)-[(S)-5,5-dimethyl-2-pyrrolidinyl]hydroxymeth-yl}phenol] was tested, and the Emax at 10 µM [1] was < 25% and the Emax at 10 µM [2] was < 25%.
With `COc1ccc(CC23CCC([C@H](O)c4cccc(F)c4)(CC2)N3)cc1` [Compound 401, (R)-(m-fluorophenyl){4-[(p-methoxyphenyl)methyl]-7-azabicyclo[2.2.1]hept-1-yl}methanol] the Emax at 10 µM [1] was < 25% and the Emax at 10 µM [2] was > 75%.
`CC1(C)C[C@@H]([C@@H](O)c2cccc(Cl)c2)N1` [Compound 231, (S)-[(S)-4,4-dimethyl-2-azetidinyl](m-chlorophenyl)methanol] was tested, and the Emax at 10 µM [1] was < 25% and the Emax at 10 µM [2] was 25 to 50%.
With `CC(C)(C[C@H]1CC[C@H](NS(C)(=O)=O)CC1)NC[C@H](O)c1cccc(C(F)(F)F)n1` [Compound 461, (S)-2-{1,1-dimethyl-2-[(1r,4S)-4-(mesylamino)cyclohexyl]ethylamino}-1-[6-(trifluoromethyl)-2-pyridyl]-1-ethanol] the Emax at 10 µM [1] was < 25% and the Emax at 10 µM [2] was 25 to 50%.
For `CCC[C@H]1CCC[C@H]([C@@H](O)c2cncc(F)c2)N1` [Compound 139, (S)-[(2R,6S)-6-propyl-2-piperidyl](5-fluoro-3-pyridyl)methanol], the Emax at 10 µM [1] was < 25% and the Emax at 10 µM [2] was < 25%.
In the case of `CC1(C)CCC[C@H]([C@@H](O)c2ccccc2F)N1` [Compound 176, (S)-[(R)-6,6-dimethyl-2-piperidyl](o-fluorophenyl)methanol], the Emax at 10 µM [1] is reported as 25 to 50% and the Emax at 10 µM [2] is reported as > 75%.
With `CC(C)(C[C@H]1CC[C@@H](NS(C)(=O)=O)CC1)NC[C@H](O)c1cccc(F)c1` [Compound 453, (R)-2-{1,1-dimethyl-2-[(1s,4S)-4-(mesylamino)cyclohexyl]ethylamino}-1-(m-fluorophenyl)-1-ethanol] the Emax at 10 µM [1] was < 25% and the Emax at 10 µM [2] was > 75%.
For `CC(C)(C[C@H]1CC[C@@H](C#N)CC1)NC[C@H](O)c1cccc(F)c1` [Compound 399, (1S,4s)-4-{2-[(R)-2-(m-fluorophenyl)-2-hydroxyethylamino]-2-methylpropyl)cyclohexanecarbonitrile], the Emax at 10 µM [1] was 25 to 50% and the Emax at 10 µM [2] was > 75%.
In the case of `Cc1ncccc1[C@@H](O)CNC(C)(C)C` [Compound 376, (R)-2-(tert-butylamino)-1-(2-methyl-3-pyridyl)-1-ethanol], the Emax at 10 µM [1] is reported as 25 to 50% and the Emax at 10 µM [2] is reported as > 75%.
`COC(=O)[C@H]1CC[C@H](C(C)(C)NC[C@H](O)c2cncc(F)c2)CC1` [Compound 370, (1R,4r)-8-[(R)-2-(5-fluoro-3-pyridyl)-2-hydroxyethylamino]-7-methoxy-p-menthan-7-one] was tested, and the Emax at 10 µM [1] was < 25% and the Emax at 10 µM [2] was > 75%.
With `CC(C)(NC[C@H](O)c1cncc(F)c1)[C@H]1CC[C@H](OCC(=O)O)CC1` [Compound 419, [(1R,4r)-4-{1-[(R)-2-(5-fluoro-3-pyridyl)-2-hydroxyethylamino]-1-methylethyl}cyclohexyloxy]aetic acid] the Emax at 10 µM [1] was < 25% and the Emax at 10 µM [2] was 50 to 75%.
`CO[C@H]1CC[C@@H](CC(C)(C)NC[C@H](O)c2cncc(F)c2)CC1` [Compound 248, (R)-2-{1,1-dimethyl-2-[(1s,4S)-4-methoxycyclohexyl]ethyl-amino}-1-(5-fluoro-3-pyridyl)-1-ethanol] was tested, and the Emax at 10 µM [1] was < 25% and the Emax at 10 µM [2] was > 75%.
In the case of `O[C@@H](CNCC[C@H]1CC[C@@H](OCc2ccccc2)CC1)c1cncc(F)c1` [Compound 291, (R)-1-(5-fluoro-3-pyridyl)-2-{2-[(1s,4S)-4-(benzyloxy)cyclohexyl]ethylamino}-1-ethanol], the Emax at 10 µM [1] is reported as < 25% and the Emax at 10 µM [2] is reported as 50 to 75%.
With `CS(=O)(=O)N[C@H]1CC[C@H](C[C@@H]2CC[C@H]([C@H](O)c3cccc(F)c3)N2)CC1` [Compound 504, (R)-[(2R,5S)-5-{[(1r,4S)-4-(mesylamino)cyclohexyl]methyl}-2-pyrrolidinyl](m-fluorophenyl)methanol] the Emax at 10 µM [1] was < 25% and the Emax at 10 µM [2] was 50 to 75%.
In the case of `CCC[C@@H](C)NC[C@H](O)c1ccc(F)cc1` [Compound 52, (R)-2-[(R)-1-methylbutylamino]-1-(p-fluorophenyl)-1-ethanol], the Emax at 10 µM [1] is reported as < 25% and the Emax at 10 µM [2] is reported as 50 to 75%.
In the case of `CC1(C)C[C@H]([C@@H](O)c2cccc(Cl)c2)N1` [Compound 233, (S)-[(R)-4,4-dimethyl-2-azetidinyl](m-chlorophenyl)methanol], the Emax at 10 µM [1] is reported as < 25% and the Emax at 10 µM [2] is reported as < 25%.
With `CC1(C)CCC[C@@H]([C@H](O)c2cccc(F)c2)N1` [Compound 190, (R)-[(S)-6,6-dimethyl-2-piperidyl](m-fluorophenyl)methanol] the Emax at 10 µM [1] was < 25% and the Emax at 10 µM [2] was > 75%.
In the case of `CC(C)(C[C@H]1CC[C@@H](C(=O)O)CC1)NC[C@H](O)c1cccc(F)c1` [Compound 331, (1S,4s)-4-{2-[(R)-2-(m-fluorophenyl)-2-hydroxyethylamino]-2-methylpropyl}cyclohexanecarboxylic acid], the Emax at 10 µM [1] is reported as < 25% and the Emax at 10 µM [2] is reported as 25 to 50%.
`CC12CC(C1)[C@@H]([C@H](O)c1cccc(Cl)c1)N2` [Compound 209, (R)-{(S)-1-methyl-2-azabicyclo[2.1.1]hex-3-yl}(m-chlorophenyl)methanol] was tested, and the Emax at 10 µM [1] was < 25% and the Emax at 10 µM [2] was 25 to 50%.
For `CC(C)(NC[C@H](O)c1cncc(F)c1)[C@H]1CC[C@H](C(=O)O)CC1` [Compound 390, (1R,4r)-8-[(R)-2-(5-fluoro-3-pyridyl)-2-hydroxyethylamino]-7-hydroxy-p-menthan-7-one], the Emax at 10 µM [1] was < 25% and the Emax at 10 µM [2] was 50 to 75%.
With `CS(=O)(=O)N(Cc1ccccc1)CC12CCC([C@@H](O)c3cccc(F)c3)(CC1)N2` [Compound 538, (S)-(4-{[(benzyl)-N-mesylamino]methyl}-7-azabicyclo[2.2.1]hept-1-yl)(m-fluorophenyl)methanol] the Emax at 10 µM [1] was < 25% and the Emax at 10 µM [2] was 50 to 75%.
`CC(=O)N[C@H]1CC[C@H](CC(C)(C)NC[C@H](O)c2cccc(C(F)(F)F)n2)CC1` [Compound 460, N-[(1S,4r)-4-(2-{(S)-2-hydroxy-2-[6-(trifluoromethyl)-2-pyridyl]ethylamino}-2-methylpropyl)cyclohexyl]acetamide] was tested, and the Emax at 10 µM [1] was < 25% and the Emax at 10 µM [2] was 50 to 75%.
With `COC(=O)[C@H]1CC[C@H](CCC(C)(C)NC[C@H](O)c2cncc(F)c2)CC1` [Compound 342, methyl (1R,4r)-4-{3-[(R)-2-(5-fluoro-3-pyridyl)-2-hydroxyethylamino]-3-methylbutyl}cyclohexanecarboxylate] the Emax at 10 µM [1] was < 25% and the Emax at 10 µM [2] was > 75%.
In the case of `CC(C)(C[C@H]1CC[C@@H](O)CC1)NC[C@H](O)c1cncc(F)c1` [Compound 301, (R)-2-{1,1-dimethyl-2-[(1s,4S)-4-hydroxycyclohexyl]ethylamino}-1-(5-fluoro-3-pyridyl)-1-ethanol], the Emax at 10 µM [1] is reported as < 25% and the Emax at 10 µM [2] is reported as > 75%.
With `CC(C)(C[C@H]1CC[C@@H](NC(=O)C2CC2)CC1)NC[C@H](O)c1cccc(F)c1` [Compound 447, N-[(1S,4s)-4-{2-[(R)-2-(m-fluorophenyl)-2-hydroxyethylamino]-2-methylpropyl}cyclohexyl]cyclopropanecarboxamide] the Emax at 10 µM [1] was < 25% and the Emax at 10 µM [2] was > 75%.
`CCC[C@@H]1CC[C@H]([C@@H](O)c2cccc(O)c2)N1` [Compound 127, m-{(S)-[(2R,5R)-5-propyl-2-pyrrolidinyl]hydroxymeth-yl}phenol] was tested, and the Emax at 10 µM [1] was < 25% and the Emax at 10 µM [2] was 25 to 50%.
